Laboratory results published in patent publication US12240840B2, “Amide-substituted heterocyclic compounds for the treatment of conditions related to the modulation of IL-12, IL-23 and/or IFN-alpha” (BRISTOL-MYERS SQUIBB COMPANY, priority 2018, dated 2025).

Each compound was assayed on IFNα-induced pSTAT5 (pY694) in CD3 positive cells of human whole blood (assay: IFNα-Induced STAT Phosphorylation in Human Whole Blood). Conditions: 1 h compound incubation, 1000 U/mL recombinant human IFNα A/D for 15 min, pSTAT5 in CD3 positive population, read-out: Human WB IFNα-Induced Stat Phosph. (IC50).
Type: cell-based
Method in brief: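 Read-out is median fluorescence intensity of pSTAT5 (pY694) in the CD3-positive gate, by flow cytometry after fix/lyse and permeabilization. Before that, whole human blood anticoagulated with EDTA or ACD-A received compound for an hour and 1000 U/mL IFNα A/D for 15 min.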

| IC50 [nM] | SMILES |
| --- | --- |
| > 10000 | [2H]C([2H])([2H])NC(=O)c1cnc(NC(=O)C2CC2)cc1Nc1cccc(-c2ccn(CCNC(=O)COC)n2)c1OC [Example 473] |

Same assay, conditions: Homo sapiens, 1 h compound incubation, 1000 U/mL recombinant human IFNα A/D for 15 min, pSTAT5 in CD3 positive population, read-out: Human WB IFNα-Induced Stat Phosph. (IC50)

| SMILES | IC50 [nM] |
| --- | --- |
| [2H]C([2H])([2H])NC(=O)c1nnc(NC(=O)C2CC2)cc1Nc1cccc(-c2nc([C@H](COC(C)=O)NC(C)=O)no2)c1OC [Example 200] | 760 |
| [2H]C([2H])([2H])NC(=O)c1cnc(NC(=O)C2CC2)cc1Nc1cccc(-c2csc(C(=O)NCCOC)n2)c1OC [Example 569] | 590 |
| [2H]C([2H])([2H])NC(=O)c1nnc(NC(=O)C2CC2)cc1Nc1cc(F)cc(-c2cc(C(=O)N3CCN(C(C)C)CC3)n(C)n2)c1OC [Example 518] | 150 |
| [2H]C([2H])([2H])NC(=O)c1cnc(NC(=O)C2CC2)cc1Nc1cccc(-c2noc(COC)n2)c1OC [Example 93] | 50 |
| [2H]C([2H])([2H])NC(=O)c1nnc(NC(=O)C2CC2)cc1Nc1cccc(-c2ncc(C(=O)N3CCNC(=O)C3)s2)c1OC [Example 312] | 70 |
| [2H]C([2H])([2H])NC(=O)c1nnc(NC(=O)C2CC2)cc1Nc1cccc(-c2nc(CNC(=O)CN(C)C(=O)OC(C)(C)C)no2)c1OC [Example 153] | > 10000 |
| [2H]C([2H])([2H])NC(=O)c1nnc(NC(=O)C2CC2)cc1Nc1cccc(-c2noc(CN3CCNCC3)n2)c1OC [Example 35] | 120 |
| [2H]C([2H])([2H])NC(=O)c1nnc(NC(=O)C2CC2)cc1Nc1cccc(-c2ncc(CNC(=O)CC)s2)c1OC [Example 262] | 2690 |
| COc1c(Nc2cc(NC(=O)C3CC3)nnc2C(N)=O)cccc1-c1noc([C@H]2C[C@@H](O)CN2S(C)(=O)=O)n1 [Example 62] | 80 |
| [2H]C([2H])([2H])NC(=O)c1nnc(NC(=O)C2CC2)cc1Nc1cccc(-c2cc(C(=O)N3CCN(C)CC3)n(C)n2)c1OC [Example 480] | 70 |
| [2H]C([2H])([2H])NC(=O)c1nnc(Nc2cc(C)n(C)n2)cc1Nc1cc(F)cc(-c2cc(C(C)(C)O)n(C)n2)c1OC [Example 546] | 110 |
| COc1c(Nc2cc(NC(=O)C3CC3)nnc2C(N)=O)cccc1-c1ncc(C(=O)N2CCOCC2)s1 [Example 245] | 110 |
| [2H]C([2H])([2H])NC(=O)c1nnc(NC(=O)C2CC2)cc1Nc1cccc(-c2ncc(C(=O)NCCCN(CC)CC)s2)c1OC [Example 335] | 50 |
| [2H]C([2H])([2H])NC(=O)c1nnc(Nc2ccc(OC)nn2)cc1Nc1cccc(-c2cnn(C)n2)c1OC [Example 451, 4-((2-methoxy-3-(2-methyl-2H-1,2,3-triazol-4-yl)phenyl)amino)-6-((6-methoxypyridazin-3-yl)amino)-N-(methyl-d3)pyridazine-3-carboxamide] | 60 |
| [2H]C([2H])([2H])NC(=O)c1cnc(NC(=O)C2CC2)cc1Nc1cc(F)cc(-c2cnn(C)n2)c1OC [Example 453] | 60 |
| [2H]C([2H])([2H])NC(=O)c1cnc(NC(=O)C2CC2)cc1Nc1cccc(-c2noc(CN3CCCS3(=O)=O)n2)c1OC [Example 97] | 30 |
| [2H]C([2H])([2H])NC(=O)c1nnc(NC(=O)C2CC2)cc1Nc1cccc(-c2nc(C)c(C(=O)NC(C)C)s2)c1OC [Example 364] | 440 |
| [2H]C([2H])([2H])NC(=O)c1nnc(NC(=O)C2CC2)cc1Nc1cccc(-c2ncc(CNC(C)=O)s2)c1OC [Example 261] | 680 |
| [2H]C([2H])([2H])NC(=O)c1nnc(NC(=O)C2CC2)cc1Nc1cccc(-c2ncc(NC(=O)COC)s2)c1OC [Example 283] | 360 |

| SMILES | IC50 [nM] |
| --- | --- |
| [2H]C([2H])([2H])NC(=O)c1nnc(NC(=O)C2CC2)cc1Nc1cccc(-c2nc(CN3CCCC3)no2)c1OC [Example 209] | 1370 |
| [2H]C([2H])([2H])NC(=O)c1nnc(NC(=O)C2CC2)cc1Nc1cccc(-c2cnn(CCNS(C)(=O)=O)n2)c1OC [Example 434] | 160 |
| [2H]C([2H])([2H])NC(=O)c1nnc(NC(=O)C2CC2)cc1Nc1cccc(-c2nc(C)c(C(=O)N3CCN(C(C)C)CC3)s2)c1OC [Example 369] | 50 |
| COc1c(Nc2cc(N)nnc2C(N)=O)cccc1-c1noc(CN2CCN(S(C)(=O)=O)CC2)n1 [Example 109] | > 10000 |
| [2H]C([2H])([2H])NC(=O)c1nnc(NC(=O)C2CC2)cc1Nc1cc(F)cc(-c2cc(C(=O)N3C[C@@H](C)O[C@@H](C)C3)n(C)n2)c1OC [Example 499] | 180 |
| [2H]C([2H])([2H])NC(=O)c1nnc(NC(=O)C2CC2)cc1Nc1cccc(-c2nc([C@H](C)NC(=O)OC)no2)c1OC [Example 182] | 2010 |
| [2H]C([2H])([2H])NC(=O)c1nnc(NC(=O)C2CC2)cc1Nc1cccc(-c2nc(CNC(C)=O)no2)c1OC [Example 145] | 270 |
| [2H]C([2H])([2H])NC(=O)c1nnc(NC(=O)C2CC2)cc1Nc1cccc(-c2nc(CCOC(C)(C)C)no2)c1OC [Example 226] | 1160 |
| CCS(=O)(=O)N1CCN(C(=O)c2cnc(-c3cccc(Nc4cc(NC(=O)C5CC5)nnc4C(N)=O)c3OC)s2)CC1 [Example 402] | 40 |
| [2H]C([2H])([2H])NC(=O)c1nnc(NC(=O)C2CC2)cc1Nc1cccc(-c2nc(CNC(=O)CN3CCN(C)CC3)no2)c1OC [Example 160] | 1790 |
| [2H]C([2H])([2H])NC(=O)c1nnc(NC(=O)C2CC2)cc1Nc1cccc(-c2ncc(C(=O)NCC(O)CN3CCCC3=O)s2)c1OC (stereo not drawn) [Example 332] | 40 |
| [2H]C([2H])([2H])NC(=O)c1nnc(NC(=O)C2CC2)cc1Nc1cc(F)cc(-c2cc(C(=O)N3CCC(CCO)CC3)n(C)n2)c1OC [Example 509] | 170 |
| [2H]C([2H])([2H])NC(=O)c1nnc(NC(=O)C2CC2)cc1Nc1cccc(-c2ncc(C(=O)Nc3ccc(OC)cc3)s2)c1OC [Example 296] | > 10000 |
| CCS(=O)(=O)N(C)Cc1nc(-c2cccc(Nc3cc(NC(=O)C4CC4)nnc3C(N)=O)c2OC)no1 [Example 57] | 9 |
| [2H]C([2H])([2H])NC(=O)c1nnc(Nc2cnn(C)n2)cc1Nc1cccc(-c2ncc(CO)s2)c1OC [Example 386] | 490 |
| [2H]C([2H])([2H])NC(=O)c1nnc(NC(=O)C2CC2)cc1Nc1cccc(-c2nc(CN3CCN(C(=O)c4cccnc4)CC3)no2)c1OC [Example 131] | 740 |
| [2H]C([2H])([2H])NC(=O)c1nnc(NC(=O)C2CC2)cc1Nc1cccc(-c2cc(C(=O)N3CCCCC3)n(C)n2)c1OC [Example 479] | 110 |
| COc1c(Nc2cc(NC(=O)C3CC3)nnc2C(N)=O)cccc1-c1noc(CN2CCOCC2)n1 [Example 8] | 21 |

Now from value to compound:

| IC50 [nM] | SMILES |
| --- | --- |
| 160 | COc1c(Nc2cc(NC(=O)C3CC3)nnc2C(N)=O)cccc1-c1noc([C@H](C)N(C)S(C)(=O)=O)n1 [Example 51] |
| 110 | [2H]C([2H])([2H])NC(=O)c1nnc(NC(=O)C2CC2)cc1Nc1cccc(-c2ncc(C(=O)N3CCC[C@H]3CO)s2)c1OC [Example 302] |
| 30 | [2H]C([2H])([2H])NC(=O)c1nnc(NC(=O)C2CC2)cc1Nc1cccc(-c2ncc(C(=O)N3CCC(CCO)CC3)s2)c1OC [Example 297] |
| 7360 | [2H]C([2H])([2H])NC(=O)c1nnc(NC(=O)C2CC2)cc1Nc1cccc(-c2nc([C@@H](C)NC(=O)OC(C)(C)C)no2)c1OC [Example 193] |
| 70 | [2H]C([2H])([2H])NC(=O)c1nnc(NC(=O)C2CC2)cc1Nc1cccc(-c2ncc(C(=O)NC3CCCN(C)C3)s2)c1OC (stereo not drawn) [Example 337] |
| 19 | COc1c(Nc2cc(NC(=O)C3CC3)ncc2C(N)=O)cccc1-c1nc(CN2CCN(S(C)(=O)=O)CC2)no1 [Example 577] |
| 230 | [2H]C([2H])([2H])NC(=O)c1nnc(NC(=O)C2CC2)cc1Nc1cccc(-c2nc(CNC)no2)c1OC [Example 168] |
| 110 | COc1c(Nc2cc(NC(=O)C3CC3)nnc2C(N)=O)cccc1-c1ncc(C(=O)NC(C)C)s1 [Example 404] |
| 30 | [2H]C([2H])([2H])NC(=O)c1nnc(NC(=O)C2CC2)cc1Nc1cccc(-c2ncc(C(=O)NC3CCC(N(CC)CC)CC3)s2)c1OC (stereo not drawn) [Example 319] |
| 180 | COc1c(Nc2cc(NC(=O)C3CC3)nnc2C(N)=O)cccc1-c1nccs1 [Example 406] |
| 870 | [2H]C([2H])([2H])NC(=O)c1nnc(NC(=O)C2CC2)cc1Nc1cccc(-c2nc([C@@H](C)NC(=O)OC)no2)c1OC [Example 192] |
| 30 | [2H]C([2H])([2H])NC(=O)c1nnc(Nc2ccc(C)nn2)cc1Nc1cccc(-c2ncc(C(=O)N3CCS(=O)(=O)CC3)s2)c1OC [Example 383] |
| 120 | CCC(C(=O)NCCOC)c1nc(-c2cccc(Nc3cc(NC(=O)C4CC4)nnc3C(N)=O)c2OC)no1 (stereo not drawn) [Example 56] |
| 130 | [2H]C([2H])([2H])NC(=O)c1nnc(NC(=O)C2CC2)cc1Nc1cccc(-c2noc([C@H](C)O)n2)c1OC [Example 84] |
| 150 | [2H]C([2H])([2H])NC(=O)c1nnc(NC(=O)C2CC2)cc1Nc1cccc(-c2nc(C)c(C(=O)N3CCS(=O)(=O)CC3)s2)c1OC [Example 372] |
| > 10000 | [2H]C([2H])([2H])NC(=O)c1nnc(NC(=O)C2CC2)cc1Nc1cccc(-c2ncc(NC(=O)CC#N)s2)c1OC [Example 284] |
| 2800 | [2H]C([2H])([2H])NC(=O)c1nnc(NC(=O)C2CC2)cc1Nc1cccc(-n2cc(CN3CCS(=O)(=O)CC3)nn2)c1OC [Example 1, 6-(cyclopropanecarboxamido)-4-((3-(4-((1,1-dioxidothiomorpholino)methyl)-1H-1,2,3-triazol-1-yl)-2-methoxyphenyl)amino)-N-(trideuteromethyl)pyridazine-3-carboxamide] |
| 630 | [2H]C([2H])([2H])NC(=O)c1nnc(NC(=O)C2CC2)cc1Nc1cccc(-c2nc([C@H](C)N)no2)c1OC [Example 181] |
| 270 | [2H]C([2H])([2H])NC(=O)c1nnc(NC(=O)C2CC2)cc1Nc1cccc(-c2ccn(CCNC(C)=O)n2)c1OC [Example 468] |
